# Assay: Safety and tolerability (adverse events), Study 1 SAD in healthy participants
# Format: in vivo, human
# [1] = Study 1 SAD group, BMS-986142-treated
# [2] = Study 1 SAD, all BMS-986142 doses, n = 36
smiles,measurement,setting,value
"Cc1c(-c2c(F)cc(C(N)=O)c3[nH]c4c(c23)CC[C@H](C(C)(C)O)C4)cccc1-n1c(=O)c2cccc(F)c2n(C)c1=O [BMS-986142, 6-fluoro-5-(R)-(3-(S)-(8-fluoro-1-methyl-2,4-dioxo-1,2-dihydroquinazolin-3(4H)-yl)-2-methylphenyl)-2-(S)-(2-hydroxypropan-2-yl)-2,3,4,9-tetrahydro-1H-carbazole-8-carboxamide]",AE: Polyuria,"SAD 100 mg, n = 6",1 (16.7) n (%)
same,AE: Syncope,"SAD 100 mg, n = 6",0 n (%)
same,AE: Tension headache,"SAD 100 mg, n = 6",1 (16.7) n (%)
same,AE: Thermal burn,"SAD 100 mg, n = 6",0 n (%)
same,AE: Toothache,"SAD 100 mg, n = 6",0 n (%)
same,AE: Upper respiratory tract infection,"SAD 100 mg, n = 6",0 n (%)
same,AE: Vomiting,"SAD 100 mg, n = 6",1 (16.7) n (%)
same,Total participants with an event,"SAD 100 mg, n = 6",2 (33.3) n (%)
same,AE SOC: Gastrointestinal Disorders,"SAD 300 mg, n = 6",1 (16.7) n (%)
same,AE SOC: General disorders and administration site conditions,"SAD 300 mg, n = 6",0 n (%)
same,AE SOC: Infections and infestations,"SAD 300 mg, n = 6",0 n (%)
same,"AE SOC: Injury, poisoning and procedural complications","SAD 300 mg, n = 6",0 n (%)
same,AE SOC: Musculoskeletal and connective tissue disorders,"SAD 300 mg, n = 6",0 n (%)
same,AE SOC: Nervous system disorders,"SAD 300 mg, n = 6",0 n (%)
same,AE SOC: Renal and urinary disorders,"SAD 300 mg, n = 6",0 n (%)
same,"AE SOC: Respiratory, thoracic and mediastinal disorders","SAD 300 mg, n = 6",0 n (%)
same,AE: Aphthous stomatitis,"SAD 300 mg, n = 6",0 n (%)
same,AE: Chest pain,"SAD 300 mg, n = 6",0 n (%)
same,AE: Contusion,"SAD 300 mg, n = 6",0 n (%)
same,AE: Cough,"SAD 300 mg, n = 6",0 n (%)
same,AE: Diarrhoea,"SAD 300 mg, n = 6",0 n (%)
same,AE: Dizziness,"SAD 300 mg, n = 6",0 n (%)
same,AE: Headache,"SAD 300 mg, n = 6",0 n (%)
same,AE: Lip Dry,"SAD 300 mg, n = 6",1 (16.7) n (%)
same,AE: Muscle spasms,"SAD 300 mg, n = 6",0 n (%)
same,AE: Nausea,"SAD 300 mg, n = 6",0 n (%)
same,AE: Paraesthesia,"SAD 300 mg, n = 6",0 n (%)
same,AE: Polyuria,"SAD 300 mg, n = 6",0 n (%)
same,AE: Syncope,"SAD 300 mg, n = 6",0 n (%)
same,AE: Tension headache,"SAD 300 mg, n = 6",0 n (%)
same,AE: Thermal burn,"SAD 300 mg, n = 6",0 n (%)
same,AE: Toothache,"SAD 300 mg, n = 6",0 n (%)
same,AE: Upper respiratory tract infection,"SAD 300 mg, n = 6",0 n (%)
same,AE: Vomiting,"SAD 300 mg, n = 6",0 n (%)
same,Total participants with an event,"SAD 300 mg, n = 6",1 (16.7) n (%)
same,AE SOC: Gastrointestinal Disorders,"SAD 900 mg, n = 6",2 (33.3) n (%)
same,AE SOC: General disorders and administration site conditions,"SAD 900 mg, n = 6",1 (16.7) n (%)
same,AE SOC: Infections and infestations,"SAD 900 mg, n = 6",1 (16.7) n (%)
same,"AE SOC: Injury, poisoning and procedural complications","SAD 900 mg, n = 6",0 n (%)
same,AE SOC: Musculoskeletal and connective tissue disorders,"SAD 900 mg, n = 6",0 n (%)
same,AE SOC: Nervous system disorders,"SAD 900 mg, n = 6",2 (33.3) n (%)
same,AE SOC: Renal and urinary disorders,"SAD 900 mg, n = 6",0 n (%)
same,"AE SOC: Respiratory, thoracic and mediastinal disorders","SAD 900 mg, n = 6",1 (16.7) n (%)
same,AE: Aphthous stomatitis,"SAD 900 mg, n = 6",0 n (%)
same,AE: Chest pain,"SAD 900 mg, n = 6",1 (16.7) n (%)
same,AE: Contusion,"SAD 900 mg, n = 6",0 n (%)
same,AE: Cough,"SAD 900 mg, n = 6",1 (16.7) n (%)
same,AE: Diarrhoea,"SAD 900 mg, n = 6",1 (16.7) n (%)
same,AE: Dizziness,"SAD 900 mg, n = 6",1 (16.7) n (%)
same,AE: Headache,"SAD 900 mg, n = 6",2 (33.3) n (%)
same,AE: Lip Dry,"SAD 900 mg, n = 6",0 n (%)
same,AE: Muscle spasms,"SAD 900 mg, n = 6",0 n (%)
same,AE: Nausea,"SAD 900 mg, n = 6",1 (16.7) n (%)
same,AE: Paraesthesia,"SAD 900 mg, n = 6",1 (16.7) n (%)
same,AE: Polyuria,"SAD 900 mg, n = 6",0 n (%)
same,AE: Syncope,"SAD 900 mg, n = 6",0 n (%)
same,AE: Tension headache,"SAD 900 mg, n = 6",0 n (%)
same,AE: Thermal burn,"SAD 900 mg, n = 6",0 n (%)
same,AE: Toothache,"SAD 900 mg, n = 6",0 n (%)
same,AE: Upper respiratory tract infection,"SAD 900 mg, n = 6",1 (16.7) n (%)
same,AE: Vomiting,"SAD 900 mg, n = 6",0 n (%)
same,Total participants with an event,"SAD 900 mg, n = 6",2 (33.3) n (%)
same,AE SOC: Gastrointestinal Disorders,"SAD any dose, n = 36",5 (13.9) n (%)
same,AE SOC: General disorders and administration site conditions,"SAD any dose, n = 36",1 (2.8) n (%)
same,AE SOC: Infections and infestations,"SAD any dose, n = 36",2 (5.6) n (%)
same,"AE SOC: Injury, poisoning and procedural complications","SAD any dose, n = 36",1 (2.8) n (%)
same,AE SOC: Musculoskeletal and connective tissue disorders,"SAD any dose, n = 36",1 (2.8) n (%)
same,AE SOC: Nervous system disorders,"SAD any dose, n = 36",5 (13.9) n (%)
same,AE SOC: Renal and urinary disorders,"SAD any dose, n = 36",1 (2.8) n (%)
same,"AE SOC: Respiratory, thoracic and mediastinal disorders","SAD any dose, n = 36",1 (2.8) n (%)
same,AE: Aphthous stomatitis,"SAD any dose, n = 36",1 (2.8) n (%)
same,AE: Chest pain,"SAD any dose, n = 36",1 (2.8) n (%)
same,AE: Contusion,"SAD any dose, n = 36",1 (2.8) n (%)
same,AE: Cough,"SAD any dose, n = 36",1 (2.8) n (%)
same,AE: Diarrhoea,"SAD any dose, n = 36",1 (2.8) n (%)
same,AE: Dizziness,"SAD any dose, n = 36",1 (2.8) n (%)
same,AE: Headache,"SAD any dose, n = 36",4 (11.1) n (%)
same,AE: Lip Dry,"SAD any dose, n = 36",1 (2.8) n (%)
same,AE: Muscle spasms,"SAD any dose, n = 36",1 (2.8) n (%)
same,AE: Nausea,"SAD any dose, n = 36",1 (2.8) n (%)
same,AE: Paraesthesia,"SAD any dose, n = 36",1 (2.8) n (%)
same,AE: Polyuria,"SAD any dose, n = 36",1 (2.8) n (%)
same,AE: Syncope,"SAD any dose, n = 36",0 n (%)
same,AE: Tension headache,"SAD any dose, n = 36",1 (2.8) n (%)
same,AE: Thermal burn,"SAD any dose, n = 36",1 (2.8) n (%)
same,AE: Toothache,"SAD any dose, n = 36",0 n (%)
same,AE: Upper respiratory tract infection,"SAD any dose, n = 36",2 (5.6) n (%)
same,AE: Vomiting,"SAD any dose, n = 36",1 (2.8) n (%)
same,Total participants with an event,"SAD any dose, n = 36",8 (22.2) n (%)
same,Number of AEs reported,[1],22 AEs
same,Participants with AEs,[1],8 participants
same,AE: Cough,[2],1 (2.8) n (%)
same,AE: Diarrhea,[2],1 (2.8) n (%)
same,AE: Dizziness,[2],1 (2.8) n (%)
same,AE: Headache/tension headache,[2],5 (13.9) n (%)
same,AE: Nausea,[2],1 (2.8) n (%)
same,AE: Thermal burns,[2],1 (2.8) n (%)
same,AE: Upper respiratory tract infection,[2],2 (5.6) n (%)
same,Subjects with AEs,[2],8 (22.2) n (%)
same,Tolerability,"healthy participants, alone and in combination with MTX (studies 1 and 2)",generally well tolerated

# Reference: article PMC5423977, “Safety, pharmacokinetics, and pharmacodynamics of BMS-986142, a novel reversible BTK inhibitor, in healthy participants” (European Journal of Clinical Pharmacology, 2017)
